The subject of this test is ob/ob mice. The test is described as follows: Blood glucose in ob/ob mice, CCcompound1 combined with human proteins AGP and TF. It counts as in vivo. How it is done:
For each experimental group, ob/ob mice were chosen (5 mice in each group) that were 43 days old and weighed on average 40.3±1.9-g on the first day of experiment. Three groups of mice were treated with s.c. injection of 4.5-mg/kg CCcompound1 once every day for 17 days. Mice in one of these CCcompound1-treated groups received no other treatment, and their blood was drawn for glucose analysis on day 14 and 17 exactly 45 min after treatment. The second CCcompound1-treated group also received 0.5-mg/mouse (˜11 mg/kg) dose of greater than 98% pure commercial human transferrin [catalogue number, T 3309 according to 2004/2005 Sigma catalogue]. In this second group the blood was drawn on day 14 just prior to TF administration and on day 17 two hours after TF and 45 min after CCcompound1 administration. An additional group of animals received only TF treatment. The third CCcompound1-treated group also received 1.2-mg/mouse (26.6-mg/kg) dose of >99% pure human AGP [catalogue number G 9885 according to 2004/2005 Sigma catalogue]; in this group the blood was drawn on day 14 just prior to AGP administration and on day 17 two hours and 45 minutes after administration of AGP and CCcompound1, respectively. An additional group of animals received only AGP treatment, and yet another group of animals received no treatment at all. On day 1, prior to any treatment, the blood glucose level of all animals was in the range of 7.2-7.9 mM.

Where [1] appears, read: 14th day, CC1 4.5-mg/kg s.c. daily, 45 min after treatment, blood drawn just prior to AGP or TF administration.
The mark [2] stands for this setting: 17th day, 45 min after CC1 4.5-mg/kg s.c., two hours after TF 0.5-mg/mouse or AGP 1.2-mg/mouse.

For the substance “TF: greater than 98% pure commercial human transferrin, Sigma T 3309”, the Blood glucose level under setting [1] came to 15.8 ± 0.4 mM and the Blood glucose level under setting [2] was 13.6 ± 0.7 mM.

For the substance “AGP: >99% pure human α1-acid glycoprotein, Sigma G 9885”, the Blood glucose level under setting [1] stood at 16.0 ± 0.5 mM and the Blood glucose level under setting [2] stood at 12.4 ± 0.6 mM.

Values taken from patent US20090317372A1, “SMALL MOLECULES FOR THE REDUCTION OF HIGH BLOOD GLUCOSE LEVEL” (priority 2008, published 2009).
